Read-outs that look alike come from different tables or passages of the source.
What was measured:
male C57BL mice [1] = assay: In vivo stimulation of intestinal growth, 200 nmol/kg (Example 11); settings: for Colon-BW, compared to 1559 in %: colon weight relative to body weight; for Colon-BW, compared to 1559 in % / SI-BW, compared to 1559 in %: relative to ZP1559; for Sensitivity index Si/Co: ratio SI-BW / Colon-BW; for SI-BW, compared to 1559 in %: small intestine weight relative to body weight
Outline: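 Mice (n=6-10 per group) dosed s.c. at 200 nmol/kg once daily for three days; controls received equimolar [[MUT]]GLP-2 or PBS pH 7.4 vehicle.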

male C57BL mice [2] = assay: In vivo stimulation of intestinal growth, 800 nmol/kg (Example 10); set-up: key to Small intestine-colon sensitivity index: (SI/Colon) of compound divided by (SI/Colon) of reference GLP-2; settings: 800 nmol/kg s.c. once daily for 3 days; for Sensitivity index Si/Colon / Sensitivity index Stomach/Co: relative to 1559; for Colon: colon mass relative to BW, % vs. [Gly2]GLP-2; for SI (% vs. [Gly2]GLP-2: small intestine mass relative to BW, [Gly2]GLP-2 = 100%
Excerpt: Individual groups (n=6-10) of mice were given 800 nmol/kg of each compound, s.c, once daily for three consecutive days. For comparison purposes other groups of animals were given either an equimolar dose of [[…]]GLP-2 (ZP1559) or vehicle (phosphate buffered saline, pH 7.4) in the same dosing regimen Twenty-four hours after the last dose of compound had been given the mice were sacrificed and the small intestine (from the pylorus to the cecum) and the colon (intestine distal to cecum) was emptied and weighed. To correct for slight difference in body weight (BW), the organ mass of the small intestine (SI) and colon were expressed relative to BW. The non-selective reference compound [[…]]GLP-2 has been reported to stimulate gastrointestinal growth in both esophagus, stomach, small intestine and colon and to evaluate differences in growth pattern induced by compounds, the small intestine-colon sensitivity index of compound X was calculated as: […]

hGLP-2 receptor = molecular target: T1, hGLP-2 receptor (Homo sapiens, UniProt O95838); assay: In vitro screening for agonism on the GLP-2 receptor recombinantly expressed in BHK-21 cells (CRE-luciferase reporter); format: cell-based
T1 construct: expressed in transfected cells; host or cells: BHK-21 (C13) cells, transient transfection with Lipofectamine 2000
T1 sequence (O95838 1-553): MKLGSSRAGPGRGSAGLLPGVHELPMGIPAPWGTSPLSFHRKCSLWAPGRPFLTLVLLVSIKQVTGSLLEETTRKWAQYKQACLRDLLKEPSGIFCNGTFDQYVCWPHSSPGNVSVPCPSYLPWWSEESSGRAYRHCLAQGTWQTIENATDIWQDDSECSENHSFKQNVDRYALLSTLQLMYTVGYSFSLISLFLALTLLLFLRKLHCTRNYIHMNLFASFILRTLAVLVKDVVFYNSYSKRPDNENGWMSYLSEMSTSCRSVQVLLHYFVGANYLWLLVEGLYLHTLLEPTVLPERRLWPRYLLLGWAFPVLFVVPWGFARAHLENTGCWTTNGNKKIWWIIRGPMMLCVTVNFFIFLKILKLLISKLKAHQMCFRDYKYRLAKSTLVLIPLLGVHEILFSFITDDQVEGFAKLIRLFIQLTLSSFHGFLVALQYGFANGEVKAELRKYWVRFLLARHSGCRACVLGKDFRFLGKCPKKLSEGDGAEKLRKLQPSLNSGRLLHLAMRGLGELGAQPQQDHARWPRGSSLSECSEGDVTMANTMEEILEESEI
Method: The screening was done using BHK21 cells transiently transfected with GLP-2 receptor and the CRE-luciferase reporter gene construct. Dose-response curves and EC50 values were determined using seven concentrations from 10 fM to 10 nM and triplicate points for each concentration. Control peptide was used on all test plates. BHK-21 cells are seeded in 10 cm TC-Petri dishes and grown to 70-80% confluency. Subsequently, medium is changed to serum-free transfection medium. DNA (7.5 μg hGLP-2 receptor vector and 7.5 μg CRE-luciferase vector) and Lipofectamine 2000 are diluted in OptiMEM, combined, and added to the cells after 20-30 min. Cells are incubated in the incubator at 37° C., 5% CO2 for 4 hr, trypsinized, and reseeded at 35,000 cells per well in 96-well plates. Cells are incubated overnight in full growth medium in order to allow expression of the transgenes. […] Baseline activity is controled with stimulation buffer alone. These solutions are pre-warmed to 37° C. for 30 min. Cells are rinsed with pre-warmed (37° C.) stimulation buffer, and incubated with 100 μl of the pre-warmed peptide dilutions and control for 5 hr at 37° C., 5% CO2. The LucLite enzyme substrate/lysis buffer is prepared shortly before the end of the incubation. 100 μl LucLite substrate are added to each well, and light emission is counted on a suitable counter (e.g. Wallac VictorII). EC50 values are derived from the raw data by fitting with a four parameter logistic equation (Microcal Origin 5.0 or GraphPad 4).

male C57BL mice [3] = assay: In vivo stimulation of stomach growth, 200 nmol/kg (Example 12); settings: for Sensitivity index Stomach/Co: ratio Stomach-BW / Colon-BW; for Stomach-BW, compared to 1559 in %: stomach weight relative to body weight, relative to ZP1559
Outline: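 Mice (n=6-10/group) received 200 nmol/kg s.c. once daily for 3 days, with PBS pH 7.4 vehicle and an equimolar GLP-2 comparator. Stomach/colon sensitivity index relative to GLP-2 was calculated, with ≥1.05 deemed stomach-selective.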

[4] = DPP IV degradation and renal clearance; Tavares et al. 2000; cited from earlier work
[5] = BHK21 cells transiently transfected with GLP-2 receptor and CRE-luciferase, 10 fM to 10 nM, read-out: pEC50 (converted)

Substance | Colon-BW, compared to 1559 in % (male C57BL mice [1]) [%] | Sensitivity index Si/Co (male C57BL mice [1]) | SI-BW, compared to 1559 in % (male C57BL mice [1]) [%] | Colon-BW, compared to 1559 in % (male C57BL mice [2]) [%] | Preferential stimulation of epithelial growth in the small intestine (summary) (male C57BL mice [2]) | SI-BW, compared to 1559 in % (male C57BL mice [2]) [%] | Sto-BW, compared to 1559 in % (male C57BL mice [2]) [%] | Sensitivity index Si/Colon (male C57BL mice [2]) | Sensitivity index Stomach/Co (male C57BL mice [2]) | Colon (male C57BL mice [2]) [%] | SI (% vs. [Gly2]GLP-2 (male C57BL mice [2]) [%] | EC50 (hGLP-2 receptor; [5]) [pM] | Sensitivity index Stomach/Co (male C57BL mice [3]) | Stomach-BW, compared to 1559 in % (male C57BL mice [3]) [%] | half life [4] | Small intestine-colon sensitivity index (male C57BL mice [2]; (SI/Colon)x/(SI/Colon)[Gly2]GLP-2) | EC50 (hGLP-2 receptor; agonism on GLP-2 receptor in BHK-21 cells, read-out: IC 50 (FIG. 5)) [pM]
H-HGEGSFSDELATILESLAAADFISWLIATKITD-NH2 [ZP2272] | 104.7 | 1.13 | 118.1 | 104.7 | preferentially stimulating epithelial growth in the small intestine | 118.1 | 96 | 1.13 | 0.92 | 105 ± 6 | 118 ± 2 | 5.37 | 0.92 | 96 | – | – | –
H-His-Ala-Asp-Gly-Ser-Phe-Ser-Asp-Glu-Met-Asn-Thr-Ile-Leu-Asp-Asn-Leu-Ala-Ala-Arg-Asp-Phe-Ile-Asn-Trp-Leu-Ile-Gln-Thr-Lys-Ile-Thr-Asp-OH [GLP-2(1-33)] | – | – | – | – | – | – | – | – | – | – | – | – | – | – | about 7 minutes | – | –
H-HGEGSFSDELATILEALAAADFIAWLIATKITD-NH2 [ZP2264] | 109.5 | 1.15 | 125.7 | 109.5 | preferentially stimulating epithelial growth in the small intestine | 125.7 | 87 | 1.15 | 0.79 | 109 ± 3 | 126 ± 3 | 3.16 | 0.79 | 87 | – | 1.15 ± 0.03 | 3.55
